Laboratory results from PubChem BioAssay (NCI).
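Interpolation was linear, between the two tested concentrations surrounding the appropriate level; five concentrations were tested over 48 hours in 96-well plates. Abbreviation: GI50, concentration required for 50% inhibition of growth. TGI denotes the concentration required for complete inhibition of growth.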

Tests used:
Assay in all cases: DTP human tumour cell line panel, 48 h
[1] = test system: CAKI-1 renal
[2] = test system: HCT-116 colon
[3] = test system: HOP-92 NSCLC
[4] = test system: LOX IMVI melanoma
[5] = test system: NCI-H226 lung
[6] = test system: NCI-H23 lung
[7] = test system: OVCAR-4 ovarian
[8] = test system: OVCAR-8 ovarian
[9] = test system: CCRF-CEM leukemia
[10] = test system: DU-145 prostate

| Compound | TGI [1] [µM] | TGI [2] [µM] | TGI [3] [µM] | TGI [4] [µM] | TGI [5] [µM] | TGI [6] [µM] | TGI [7] [µM] | TGI [8] [µM] | TGI [9] [µM] | TGI [10] [µM] | GI50 [1] [nM] | GI50 [9] [nM] | GI50 [10] [nM] | GI50 [3] [nM] | GI50 [5] [µM] | GI50 [6] [nM] | GI50 [7] [nM] | GI50 [2] [nM] | GI50 [8] [nM] |
| --- | --- | --- | --- | --- | --- | --- | --- | --- | --- | --- | --- | --- | --- | --- | --- | --- | --- | --- | --- |
| COC(=O)C1CCC(=O)N1C(=O)Cc1ccc(OC)cc1 (centres undefined) | > 100 | > 100 | > 100 | > 100 | > 100 | > 100 | > 100 | > 100 |  |  |  |  |  |  |  |  |  |  |  |
| COc1cc(/C=C/C(=O)c2c(=O)o[nH][n+]2-c2ccccc2)ccc1[O-] | 9.41 | 5.67 | 7.39 | 6.75 | > 24.1 | 8.78 | 7.17 | 8.09 | 3.52 | 5.72 |  |  |  |  |  |  |  |  |  |
| COc1nc2c(c(=O)n1C)N[C@H]1[C@H](OC(C)=O)[C@@H](OC(C)=O)CO[C@H]1N2 | > 100 | > 100 | > 100 | > 100 | > 100 |  | > 100 | > 100 |  | > 100 |  |  |  |  |  |  |  |  |  |
| N/N=C1/C2CN3CCN(C2)CC1(c1ccc([N+](=O)[O-])cc1)C3 | > 100 | > 100 |  | > 100 | > 100 | > 100 | > 100 | > 100 |  | > 100 |  |  |  |  |  |  |  |  |  |
| N#Cc1nc(CCCCCN2C(=O)c3ccccc3C2=O)oc1N | > 100 | > 100 |  | > 100 | > 100 | > 100 | > 100 | > 100 | 74.5 | > 100 |  |  |  |  |  |  |  |  |  |
| C/C(=N\NC(=S)N1CCCCC1)c1cccc(C)n1 | 12.4 |  | 11.3 | 11.3 | 0.4 | 10.7 | 51.6 | 2.1 |  | 2.22 |  |  |  |  |  |  |  |  |  |
| Clc1ccc(N2N=C(c3cccc(Nc4ccncc4)c3)CC2c2ccc3c(c2)OCO3)cc1 (centres undefined) | 2.9 |  | 2.86 |  | 33.1 | 3.37 | 3.25 |  | 15.9 | 3.39 | 1440 | 3180 | 1840 | 1240 | 7.28 | 1740 | 1690 |  |  |
| CCc1c(Cc2cccc3ccccc23)n2c(nc1=O)SCC2OCCO (centres undefined) | > 100 | > 100 | 34.7 | > 100 | > 100 | > 100 | > 100 | > 100 | 74 | > 100 |  |  |  |  |  |  |  |  |  |
| COC(=O)[C@H]1[C@@H](C(C)C)O[C@@H](C(C)C)O[C@H]1C(F)(F)F | > 100 | > 100 | > 100 | > 100 | > 100 | > 100 | > 100 | > 100 | > 100 | > 100 |  |  |  |  |  |  |  |  |  |
| Cc1cc(O)c(C(C)C)cc1SC#N | 28.2 |  | 25.3 | 32.6 |  | 33.3 | 28.5 | 88.9 | 24.6 | 28.8 |  |  |  |  |  |  |  |  |  |
| N#CC(C#N)=C1C(C#N)=C(N)NC12OCCO2 | > 100 | > 100 | > 100 | > 100 | > 100 | > 100 | > 100 | > 100 | > 100 | > 100 |  |  |  |  |  |  |  |  |  |
| Cc1ccc(S(=O)(=O)NNC(=O)c2cc(C)ccc2NC(=O)C23CC4CC(CC(C4)C2)C3)cc1 | > 100 | > 100 | 91.5 | > 100 | > 100 | > 100 | 78.5 | > 100 | > 100 | > 100 |  |  |  |  |  |  |  |  |  |
| CN(C)c1nc(N(C)C)nc(N(C)C23CC4CC(CC(C4)C2)C3)n1 | > 100 | 58.8 | 55.8 |  | > 100 | 34.1 | > 100 | > 100 | 66.6 | > 100 |  |  |  |  |  |  |  |  |  |
| Clc1ccc(Cc2nc3ccccc3nc2-c2cccc(Br)c2)cc1 | 5.1 | 3.5 | 1.36 | 3.73 | 33.1 | 26.6 |  | 8.09 | 5.04 | 24.5 |  |  |  |  |  |  |  |  |  |
| Cc1ccc(C(C)(C)C[P+](C)(c2ccccc2)c2ccccc2)cc1 | > 69.2 | > 58.1 | 9.5 | 37.8 | > 85.3 | > 58.7 | 63.7 | > 100 | > 79.3 |  |  |  |  |  |  |  |  |  |  |
| O=C(/C(=C\C(=O)c1cccs1)c1ccsc1)c1ccc(Br)cc1 | > 100 | > 100 |  |  | > 100 | > 100 |  | > 100 | > 100 | > 100 |  |  |  |  |  |  |  |  |  |
| Cc1cc(/C=C\c2ccc3ccccc3[n+]2C)c(O)c2ncccc12 | 3.51 | 1.41 | 4.48 |  | 3.17 | 3.25 | 1.73 | > 100 | > 100 | 4.22 | 816 | 331 | 902 | 99.5 | 1.24 | 276 | 323 | 116 | 399 |
| O=CC(O)C(O)C(O)C(O)C(=O)NCCCCCCCCCCCCNC(=O)C(O)C(O)C(O)C(O)C=O (centres undefined) |  | > 100 | > 100 | > 100 | > 100 | > 100 | > 100 | > 100 | > 100 | > 100 |  |  |  |  |  |  |  |  |  |
| COc1nc(N(C)C)nc2c1n(C)c[n+]2C | > 100 | > 100 | > 100 | > 100 | > 100 | > 100 |  | > 100 | > 100 | > 100 |  |  |  |  |  |  |  |  |  |
| C/C=C\C(CC(=O)NCCc1cn(C(=O)OCc2ccccc2)c2ccccc12)CC(=O)OC (centres undefined) | > 100 | > 100 | > 100 |  |  | > 100 | > 100 | > 100 |  | > 100 |  |  |  |  |  |  |  |  |  |
| CC(C)=CCC[C@@H](C)C1=C(Nc2ccccc2Cl)C(O)=C(C)C(=O)C1=O | 16 | > 43.7 | 29.3 | 98.4 | 25.3 | 15.9 | 43.3 | 9.09 |  | 29.3 |  |  |  |  |  |  |  |  |  |
